From patent US9006174B2 (priority 2009, dated 2015)
Ends that are not written are not given here.

System: hRBCs
Conditions: human erythrocytes, 1 h at 37° C.

| Sequence | Toxicity Haemolysis (hRBCs) |
| --- | --- |
| RFGRFLRKIRRFRGKVTITIQGSARF [CMAP26 (P14→G)] | − (<25% dead cells) |
| RFGRFLRKIRRLRPK [CMAP(1-15) (F12→L), RFGRFLRKIRRLRPK] | − (<25% dead cells) |
| RFGRFLRKIRRWRPK [CMAP(1-15) (F12→W), RFGRFLRKIRRWRPK] | −− (<5% dead cells) |
| RFGRFLRKIRRFRLKVTITIQGSARF [CMAP26 (P14→L)] | − (<25% dead cells) |
